Here are results for 32 compounds from patent US8129417B2, “Substituted octahydrocyclopenta[C]pyrrol-4-amines as calcium channel blockers” (Abbott Laboratories, priority 2008, dated 2012).

pIC50: −log10 of the molar value.

human Cav2.2, sequence (Q00975 whole entry): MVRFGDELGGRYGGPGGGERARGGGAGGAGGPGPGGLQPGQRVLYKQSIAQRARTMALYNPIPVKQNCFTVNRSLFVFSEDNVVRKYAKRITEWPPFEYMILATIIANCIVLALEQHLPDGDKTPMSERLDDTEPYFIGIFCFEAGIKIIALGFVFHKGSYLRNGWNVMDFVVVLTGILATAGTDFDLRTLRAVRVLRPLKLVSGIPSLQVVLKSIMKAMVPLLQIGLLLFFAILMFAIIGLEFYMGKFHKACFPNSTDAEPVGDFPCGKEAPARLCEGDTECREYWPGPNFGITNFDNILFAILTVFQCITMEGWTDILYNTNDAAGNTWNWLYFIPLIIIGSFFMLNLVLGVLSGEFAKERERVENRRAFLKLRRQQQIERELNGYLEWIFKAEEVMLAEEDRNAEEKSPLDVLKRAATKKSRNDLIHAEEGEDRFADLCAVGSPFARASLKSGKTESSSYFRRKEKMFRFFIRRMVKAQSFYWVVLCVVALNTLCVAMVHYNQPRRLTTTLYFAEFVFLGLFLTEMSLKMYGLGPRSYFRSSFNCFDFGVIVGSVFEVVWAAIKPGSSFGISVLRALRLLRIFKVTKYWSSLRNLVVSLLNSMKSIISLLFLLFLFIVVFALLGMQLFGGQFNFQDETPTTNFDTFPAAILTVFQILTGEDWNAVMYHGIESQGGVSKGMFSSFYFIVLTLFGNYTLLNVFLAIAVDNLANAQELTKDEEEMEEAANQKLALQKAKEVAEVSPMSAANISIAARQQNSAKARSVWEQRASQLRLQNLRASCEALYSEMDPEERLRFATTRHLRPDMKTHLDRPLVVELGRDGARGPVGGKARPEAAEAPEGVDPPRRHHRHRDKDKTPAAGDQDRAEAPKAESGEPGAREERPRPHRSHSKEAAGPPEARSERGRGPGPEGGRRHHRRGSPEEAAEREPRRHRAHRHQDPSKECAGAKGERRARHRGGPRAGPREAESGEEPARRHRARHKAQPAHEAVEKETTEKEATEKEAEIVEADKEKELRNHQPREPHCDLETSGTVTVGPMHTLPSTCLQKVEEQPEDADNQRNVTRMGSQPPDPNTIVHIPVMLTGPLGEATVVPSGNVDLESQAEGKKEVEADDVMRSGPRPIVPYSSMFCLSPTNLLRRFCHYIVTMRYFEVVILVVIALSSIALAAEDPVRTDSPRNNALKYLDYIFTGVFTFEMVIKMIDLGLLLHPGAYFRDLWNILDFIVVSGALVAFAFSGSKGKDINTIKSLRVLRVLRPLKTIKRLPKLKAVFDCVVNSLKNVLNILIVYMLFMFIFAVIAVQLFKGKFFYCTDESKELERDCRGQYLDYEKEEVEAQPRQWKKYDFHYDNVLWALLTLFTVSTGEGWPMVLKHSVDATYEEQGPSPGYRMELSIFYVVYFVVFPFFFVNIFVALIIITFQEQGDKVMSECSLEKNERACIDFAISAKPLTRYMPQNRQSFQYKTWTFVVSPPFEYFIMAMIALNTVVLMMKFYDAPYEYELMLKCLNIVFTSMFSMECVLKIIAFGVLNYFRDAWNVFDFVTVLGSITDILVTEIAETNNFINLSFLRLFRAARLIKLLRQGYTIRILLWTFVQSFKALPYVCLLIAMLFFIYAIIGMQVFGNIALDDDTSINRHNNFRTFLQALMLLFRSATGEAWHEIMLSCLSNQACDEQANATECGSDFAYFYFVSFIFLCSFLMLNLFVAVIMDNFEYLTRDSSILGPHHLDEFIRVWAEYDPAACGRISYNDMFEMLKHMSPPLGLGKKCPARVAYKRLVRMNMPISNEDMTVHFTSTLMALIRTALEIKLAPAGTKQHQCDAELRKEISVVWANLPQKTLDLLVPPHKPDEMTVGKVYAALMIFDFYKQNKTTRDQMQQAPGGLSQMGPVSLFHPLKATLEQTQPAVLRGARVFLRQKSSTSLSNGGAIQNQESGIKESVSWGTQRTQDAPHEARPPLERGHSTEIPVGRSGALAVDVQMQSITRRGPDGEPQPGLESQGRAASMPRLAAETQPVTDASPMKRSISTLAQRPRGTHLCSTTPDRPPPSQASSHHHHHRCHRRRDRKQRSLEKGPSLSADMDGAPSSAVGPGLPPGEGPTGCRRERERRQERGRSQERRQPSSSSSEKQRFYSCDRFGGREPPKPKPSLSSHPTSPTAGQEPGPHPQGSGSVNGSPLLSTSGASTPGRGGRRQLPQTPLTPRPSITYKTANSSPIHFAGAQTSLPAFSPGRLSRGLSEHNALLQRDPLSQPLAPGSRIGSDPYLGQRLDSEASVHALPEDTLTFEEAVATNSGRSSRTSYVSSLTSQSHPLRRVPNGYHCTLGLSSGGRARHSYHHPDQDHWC
human Cav2.2, sequence (P54289 25-946 partner limits assumed): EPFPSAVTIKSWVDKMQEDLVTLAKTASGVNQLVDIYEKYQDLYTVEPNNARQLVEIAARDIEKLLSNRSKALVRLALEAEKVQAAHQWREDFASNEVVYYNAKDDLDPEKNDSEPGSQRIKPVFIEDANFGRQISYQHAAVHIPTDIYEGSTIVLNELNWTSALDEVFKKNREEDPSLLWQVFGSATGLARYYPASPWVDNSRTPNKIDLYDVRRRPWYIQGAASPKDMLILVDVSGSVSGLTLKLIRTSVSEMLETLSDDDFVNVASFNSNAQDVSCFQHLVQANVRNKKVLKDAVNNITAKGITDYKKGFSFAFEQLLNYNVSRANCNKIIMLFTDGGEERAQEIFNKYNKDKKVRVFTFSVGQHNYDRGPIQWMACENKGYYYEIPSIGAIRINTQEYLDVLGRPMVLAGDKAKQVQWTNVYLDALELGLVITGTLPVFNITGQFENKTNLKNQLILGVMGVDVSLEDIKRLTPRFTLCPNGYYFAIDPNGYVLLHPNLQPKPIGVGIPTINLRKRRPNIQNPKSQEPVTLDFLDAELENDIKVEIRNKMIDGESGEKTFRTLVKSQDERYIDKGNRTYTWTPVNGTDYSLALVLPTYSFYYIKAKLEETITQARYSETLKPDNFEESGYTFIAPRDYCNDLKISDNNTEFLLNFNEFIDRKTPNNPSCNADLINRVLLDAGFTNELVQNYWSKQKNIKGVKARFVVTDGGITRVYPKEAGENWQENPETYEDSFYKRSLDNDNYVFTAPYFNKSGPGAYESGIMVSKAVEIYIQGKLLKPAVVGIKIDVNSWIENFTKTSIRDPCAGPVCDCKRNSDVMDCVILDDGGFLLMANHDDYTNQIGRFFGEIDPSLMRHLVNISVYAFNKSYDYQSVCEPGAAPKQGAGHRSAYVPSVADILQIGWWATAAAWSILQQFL
human Cav2.2, sequence (P54289 947-1103 partner limits assumed): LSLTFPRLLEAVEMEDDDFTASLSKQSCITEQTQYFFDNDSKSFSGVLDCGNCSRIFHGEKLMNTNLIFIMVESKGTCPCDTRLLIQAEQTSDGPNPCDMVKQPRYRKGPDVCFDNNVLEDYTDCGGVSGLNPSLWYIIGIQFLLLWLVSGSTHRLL
human Cav2.2, sequence (P54284 whole entry partner): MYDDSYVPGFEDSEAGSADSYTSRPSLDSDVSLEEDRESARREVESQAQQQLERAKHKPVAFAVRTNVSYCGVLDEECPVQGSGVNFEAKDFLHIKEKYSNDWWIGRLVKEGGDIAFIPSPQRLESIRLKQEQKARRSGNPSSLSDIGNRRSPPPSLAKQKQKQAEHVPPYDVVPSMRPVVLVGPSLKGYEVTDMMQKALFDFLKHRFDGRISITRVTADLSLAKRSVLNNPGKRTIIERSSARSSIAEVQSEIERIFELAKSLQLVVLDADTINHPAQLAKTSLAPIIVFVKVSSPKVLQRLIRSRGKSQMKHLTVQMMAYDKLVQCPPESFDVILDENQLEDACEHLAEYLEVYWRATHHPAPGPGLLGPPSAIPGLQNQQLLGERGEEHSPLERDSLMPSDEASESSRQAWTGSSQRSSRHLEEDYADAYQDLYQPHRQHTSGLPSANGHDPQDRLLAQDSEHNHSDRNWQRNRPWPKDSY

The target of one test is human Cav2.2 (Homo sapiens, UniProt Q00975). Briefly: Assessment of calcium channel activity using FLIPR (Ca2+ influx in IMR32 cells). The test is classed as cell-based. The conditions noted are these: 3 minute pre-incubation with compound (*), 2 μM nifedipine, depolarized with 80 mM KCl. The protocol: (i) In Vitro Methods—Assessment of Calcium Channel Activity Using FLIPR:
The IMR32 cells were maintained in MEM media containing 10% (v/v) FBS, 1% (v/v) antibiotic/antimitotic, 1% (v/v) sodium pyruvate and 1% (v/v) MEM NEAA. Following dissociation in 0.05% (v/v) trypsin/EDTA, cells were seeded into black 1×96-well plates (Corning Cellbind) at a density of 1-1.2×10^5 cells/well and incubated in the maintenance media above for 48 hours at 37° C. […] To determine the IC50 values, the percent inhibition of the compound at each concentration was determined relative to the activity in the absence of inhibitor, and data was fitted using non-linear regression sigmoidal dose response curve analysis with GraphPad Prism®.
With `CCCC(CCC)C(=O)N[C@@H]1CC[C@H]2CN(Cc3ccccc3)C[C@H]21` [Example 21, N-[(3aS,4R,6aR)-2-benzyloctahydrocyclopenta[c]pyrrol-4-yl]-2-propylpentanamide], the pIC50 was 5.00.
Still for that read-out and setting: to `O=C(N[C@@H]1CC[C@H]2CN(Cc3ccccc3)C[C@H]21)C1CCCCCC1` [Example 22, N-[(3aS,4R,6aR)-2-benzyloctahydrocyclopenta[c]pyrrol-4-yl]cycloheptanecarboxamide] belongs 4.83; to `O=C(N[C@@H]1CC[C@H]2CN(Cc3ccccc3)C[C@H]21)C1(c2ccccc2)CCCCC1` [Example 24, N-[(3aS,4R,6aR)-2-benzyloctahydrocyclopenta[c]pyrrol-4-yl]-1-phenylcyclohexanecarboxamide], 5.54; to `O=C(N[C@@H]1CC[C@H]2CN(Cc3ccccc3)C[C@H]21)C(Cc1ccccc1)c1ccccc1` (stereo partly drawn) [Example 25, N-[(3aS,4R,6aR)-2-benzyloctahydrocyclopenta[c]pyrrol-4-yl]-2,3-diphenylpropanamide], 5.43.
On the same count and under the same terms, in the case of `CC(Cc1ccccc1)C(=O)N[C@@H]1CC[C@H]2CN(Cc3ccccc3)C[C@H]21` (stereo partly drawn) [Example 26, N-[(3aS,4R,6aR)-2-benzyloctahydrocyclopenta[c]pyrrol-4-yl]-2-methyl-3-phenylpropanamide] it was 4.76.
`CC(C)(C(=O)N[C@@H]1CC[C@H]2CN(Cc3ccccc3)C[C@H]21)c1ccccc1` [Example 27, N-[(3aS,4R,6aR)-2-benzyloctahydrocyclopenta[c]pyrrol-4-yl]-2-methyl-2-phenylpropanamide]: the negative-log IC50 (pIC50) is 5.01.
For the compound `O=C(N[C@@H]1CC[C@H]2CN(Cc3ccccc3)C[C@H]21)C1(c2ccccc2)CC1` [Example 28, N-[(3aS,4R,6aR)-2-benzyloctahydrocyclopenta[c]pyrrol-4-yl]-1-phenylcyclopropanecarboxamide], the negative logarithm of the IC50 (pIC50) was 4.86.
Still for that read-out and setting: to `CC(C)(C)C(Cc1ccccc1)C(=O)N[C@@H]1CC[C@H]2CN(Cc3ccccc3)C[C@H]21` (stereo partly drawn) [Example 29, 2-benzyl-N-[(3aS,4R,6aR)-2-benzyloctahydrocyclopenta[c]pyrrol-4-yl]-3,3-dimethylbutanamide] belongs 5.25; to `O=C(N[C@H]1CC[C@@H]2CN(Cc3ccccc3)C[C@@H]21)C(C1CCCCC1)C1CCCCC1` [Example 40, N-[(3aR,4S,6aS)-2-benzyloctahydrocyclopenta[c]pyrrol-4-yl]-2,2-dicyclohexylacetamide], 5.44.
Still for that read-out and setting: in the case of `CCC(CC)C(C(=O)N[C@H]1CC[C@@H]2CN(Cc3ccccc3)C[C@@H]21)c1ccccc1` (stereo partly drawn) [Example 44, N-[(3aR,4S,6aS)-2-benzyloctahydrocyclopenta[c]pyrrol-4-yl]-3-ethyl-2-phenylpentanamide] it was 5.77; in that of `O=C(N[C@H]1CC[C@@H]2CN(Cc3ccccc3)C[C@@H]21)C1(c2ccccc2)CCCCC1` [Example 46, N-[(3aR,4S,6aS)-2-benzyloctahydrocyclopenta[c]pyrrol-4-yl]-1-phenylcyclohexanecarboxamide], 5.51.
Consider `CC(C)(C(=O)N[C@H]1CC[C@@H]2CN(Cc3ccccc3)C[C@@H]21)c1ccccc1` [Example 47, N-[(3aR,4S,6aS)-2-benzyloctahydrocyclopenta[c]pyrrol-4-yl]-2-methyl-2-phenylpropanamide], for which the pIC50 was 4.81.
On the same count and under the same terms, to `O=C(N[C@H]1CC[C@@H]2CN(Cc3ccccc3)C[C@@H]21)C1(c2ccccc2)CC1` [Example 48, N-[(3aR,4S,6aS)-2-benzyloctahydrocyclopenta[c]pyrrol-4-yl]-1-phenylcyclopropanecarboxamide] belongs 4.98; to `CC(C)(C)C(Cc1ccccc1)C(=O)N[C@H]1CC[C@@H]2CN(Cc3ccccc3)C[C@@H]21` (stereo partly drawn) [Example 49, 2-benzyl-N-[(3aR,4S,6aS)-2-benzyloctahydrocyclopenta[c]pyrrol-4-yl]-3,3-dimethylbutanamide], 5.34; to `O=C(N[C@H]1CC[C@@H]2CN(Cc3ccccc3)C[C@@H]21)C(Cc1ccccc1)c1ccccc1` (stereo partly drawn) [Example 50, N-[(3aR,4S,6aS)-2-benzyloctahydrocyclopenta[c]pyrrol-4-yl]-2,3-diphenylpropanamide], 5.30.
Regarding `CC(Cc1ccccc1)C(=O)N[C@H]1CC[C@@H]2CN(Cc3ccccc3)C[C@@H]21` (stereo partly drawn) [Example 51, N-[(3aR,4S,6aS)-2-benzyloctahydrocyclopenta[c]pyrrol-4-yl]-2-methyl-3-phenylpropanamide], the negative logarithm of the IC50 (pIC50) was 4.82.

The same test, now with this note: 60 minute pre-incubation with compound, 2 μM nifedipine, depolarized with 80 mM KCl.
For `O=C(N[C@@H]1CC[C@H]2CN(Cc3ccccc3)C[C@H]21)C(C1CCCCC1)C1CCCCC1` [Example 20, N-[(3aS,4R,6aR)-2-benzyloctahydrocyclopenta[c]pyrrol-4-yl]-2,2-dicyclohexylacetamide], the pIC50 was 5.74.
Take `CC(C)Cc1ccc([C@H](C)C(=O)N[C@@H]2CC[C@H]3CN(Cc4ccccc4)C[C@H]32)cc1` [Example 23, (2S)—N-[(3aS,4R,6aR)-2-benzyloctahydrocyclopenta[c]pyrrol-4-yl]-2-(4-isobutylphenyl)propanamide]: the pIC50 is 5.60.
With `O=C(N[C@H]1CC[C@H]2CN(Cc3ccccc3F)C[C@H]21)C(C1CCCCC1)C1CCCCC1` [Example 55, 2,2-dicyclohexyl-N-[(3aS,4S,6aR)-2-(2-fluorobenzyl)octahydrocyclopenta[c]pyrrol-4-yl]acetamide], the negative-log IC50 (pIC50) was 6.10.
Same read-out and setting: in the case of `O=C(N[C@H]1CC[C@H]2CN(Cc3ccc(F)cc3)C[C@H]21)C(C1CCCCC1)C1CCCCC1` [Example 56, 2,2-dicyclohexyl-N-[(3aS,4S,6aR)-2-(4-fluorobenzyl)octahydrocyclopenta[c]pyrrol-4-yl]acetamide] it was 6.00; in that of `O=C(N[C@H]1CC[C@H]2CN(Cc3ccccc3C(F)(F)F)C[C@H]21)C(C1CCCCC1)C1CCCCC1` [Example 60, 2,2-dicyclohexyl-N-{(3aS,4S,6aR)-2-[2-(trifluoromethyl)benzyl]octahydrocyclopenta[c]pyrrol-4-yl}acetamide], 5.82.
`Cc1cccc(CN2C[C@@H]3CC[C@H](NC(=O)C(C4CCCCC4)C4CCCCC4)[C@@H]3C2)c1` [Example 61, 2,2-dicyclohexyl-N-[(3aS,4S,6aR)-2-(3-methylbenzyl)octahydrocyclopenta[c]pyrrol-4-yl]acetamide]: the negative-log IC50 (pIC50) was 5.82.
For `O=C(N[C@H]1CC[C@H]2CN(Cc3cccc(OC(F)(F)F)c3)C[C@H]21)C(C1CCCCC1)C1CCCCC1` [Example 63, 2,2-dicyclohexyl-N-{(3aS,4S,6aR)-2-[3-(trifluoromethoxy)benzyl]octahydrocyclopenta[c]pyrrol-4-yl}acetamide], the pIC50 was 6.22.
On the same count and under the same terms, in the case of `O=C(N[C@H]1CC[C@H]2CN(Cc3cccc(F)c3)C[C@H]21)C(C1CCCCC1)C1CCCCC1` [Example 64, 2,2-dicyclohexyl-N-[(3aS,4S,6aR)-2-(3-fluorobenzyl)octahydrocyclopenta[c]pyrrol-4-yl]acetamide] it was 5.89; in that of `O=C(N[C@H]1CC[C@H]2CN(CCC(c3ccc(F)cc3)c3ccc(F)cc3)C[C@H]21)C(C1CCCCC1)C1CCCCC1` [Example 65, N-{(3aS,4S,6aR)-2-[3,3-bis(4-fluorophenyl)propyl]octahydrocyclopenta[c]pyrrol-4-yl}-2,2-dicyclohexylacetamide], 5.35.
Regarding `O=C(N[C@H]1CC[C@H]2CN(CCCCCC(c3ccc(F)cc3)c3ccc(F)cc3)C[C@H]21)C(C1CCCCC1)C1CCCCC1` [Example 66, N-{(3aS,4S,6aR)-2-[6,6-bis(4-fluorophenyl)hexyl]octahydrocyclopenta[c]pyrrol-4-yl}-2,2-dicyclohexylacetamide], the negative-log IC50 (pIC50) is 6.05.
Still for that read-out and setting: to `O=C(N[C@H]1CC[C@H]2CN(CCCc3cccc(F)c3)C[C@H]21)C(C1CCCCC1)C1CCCCC1` [Example 68, 2,2-dicyclohexyl-N-{(3aS,4S,6aR)-2-[3-(3-fluorophenyl)propyl]octahydrocyclopenta[c]pyrrol-4-yl}acetamide] belongs 5.77.

The test is the same for the next values; noted with them: IMR-32, @ 10 μM, 3 minute pre-incubation (*), read-out: percent inhibition.
On to `CC[C@@H](C(=O)N[C@H]1CC[C@@H]2CN(Cc3ccccc3)C[C@@H]21)c1ccccc1` [Example 36, (2R)—N-[(3aR,4S,6aS)-2-benzyloctahydrocyclopenta[c]pyrrol-4-yl]-2-phenylbutanamide], for which the inhibition at 10 µM came out at 44%.
Consider `C[C@@H](C(=O)N[C@H]1CC[C@@H]2CN(Cc3ccccc3)C[C@@H]21)c1ccccc1` [Example 37, (2R)—N-[(3aR,4S,6aS)-2-benzyloctahydrocyclopenta[c]pyrrol-4-yl]-2-phenylpropanamide], for which the inhibition at 10 µM is 15%.
Still for that read-out and setting: to `C[C@H](C(=O)N[C@H]1CC[C@@H]2CN(Cc3ccccc3)C[C@@H]21)c1ccccc1` [Example 38, (2S)—N-[(3aR,4S,6aS)-2-benzyloctahydrocyclopenta[c]pyrrol-4-yl]-2-phenylpropanamide] belongs 27%.
`CC(C)Cc1ccc([C@H](C)C(=O)N[C@H]2CC[C@@H]3CN(Cc4ccccc4)C[C@@H]32)cc1` [Example 39, (2S)—N-[(3aR,4S,6aS)-2-benzyloctahydrocyclopenta[c]pyrrol-4-yl]-2-(4-isobutylphenyl)propanamide]: the inhibition at 10 µM was 92%.
Same read-out and setting: in the case of `O=C(N[C@H]1CC[C@@H]2CN(Cc3ccccc3)C[C@@H]21)C(c1ccccc1)C1CC1` (stereo partly drawn) [Example 41, N-[(3aR,4S,6aS)-2-benzyloctahydrocyclopenta[c]pyrrol-4-yl]-2-cyclopropyl-2-phenylacetamide] it was 56%.
